Target: T1, Full-length, GST-tagged, human CaMKIIδ (Homo sapiens, UniProt Q13557)
T1 construct: Full-Length, Glutathione-S-Transferase(GST)-Tagged, Human CaMKIIδ was purchased from Carna Biosciences; purchased Carna Biosciences 02-111
Test: CaMKIIδ binding assay (TR-FRET with BODIPY-labeled probe ligand)
Conditions: Table 2; activity class for CaMKIIδ
In short: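 Compounds were tested as 4-fold, eight-point series for 1 hr at room temperature, and IC50 was obtained by logistic fitting against a 3 μM parent-compound control. Signal came from displacement of a 300 nM BODIPY ligand from 0.5 nM GST-CaMKIIδ, detected via Tb-anti-GST in calmodulin/Ca2+ (pH 7.6).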

T1 sequence (Q13557 1-478 isoform Q13557-12): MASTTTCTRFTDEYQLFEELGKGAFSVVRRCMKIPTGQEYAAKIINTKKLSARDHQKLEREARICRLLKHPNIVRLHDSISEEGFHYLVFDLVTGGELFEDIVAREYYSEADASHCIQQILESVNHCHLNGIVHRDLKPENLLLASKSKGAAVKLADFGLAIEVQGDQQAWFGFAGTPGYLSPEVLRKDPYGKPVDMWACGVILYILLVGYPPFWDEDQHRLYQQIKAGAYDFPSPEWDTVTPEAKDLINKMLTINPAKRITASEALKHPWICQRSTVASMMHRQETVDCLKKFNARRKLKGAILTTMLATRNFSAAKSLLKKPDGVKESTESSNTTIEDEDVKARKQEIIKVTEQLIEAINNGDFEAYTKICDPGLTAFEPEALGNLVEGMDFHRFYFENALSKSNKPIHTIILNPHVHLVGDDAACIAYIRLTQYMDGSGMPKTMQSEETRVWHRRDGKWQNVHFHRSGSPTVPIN

Q: C[C@@H](Cn1cnnn1)Oc1cc(-c2cnc(Nc3cc(N4CC(N5CCOCC5)C4)ncc3OC(F)(F)F)nc2)ccc1Cl [Example 627, (S)-5-(3-((1-(1H-tetrazol-1-yl)propan-2-yl)oxy)-4-chlorophenyl)-N-(2-(3-morpholinoazetidin-1-yl)-5-(trifluoromethoxy)pyridin-4-yl)pyrimidin-2-amine] was tested. Which IC50 did it give?
A: 0.01 to 0.1 µM

Q: Which IC50 does the source give for C[C@@H](Cn1cnnn1)Oc1cc(-c2cnc(Nc3c[nH]nc3C(F)(F)F)nc2)ccc1Cl [Example 628, (S)-5-(3-((1-(1H-tetrazol-1-yl)propan-2-yl)oxy)-4-chlorophenyl)-N-(3-(trifluoromethyl)-1H-pyrazol-4-yl)pyrimidin-2-amine] here?
A: 0.01 to 0.1 µM

Q: With C[C@@H](Cn1cnnn1)Oc1cc(-c2cnc(Nc3cn(C4CCCCNC4=O)nc3C(F)(F)F)nc2)ccc1Cl (stereo partly drawn) [Example 629, 3-(4-((5-(3-(((S)-1-(1H-tetrazol-1-yl)propan-2-yl)oxy)-4-chlorophenyl)pyrimidin-2-yl)amino)-3-(trifluoromethyl)-1H-pyrazol-1-yl)azepan-2-one] as the compound, how does the IC50 read?
A: < 0.01 µM

Q: C[C@@H](Cn1cnnn1)Oc1cc(-c2cnc(Nc3cn(CCNC(=O)c4ccccc4)nc3C(F)(F)F)nc2)ccc1Cl [Example 630, (S)-N-(2-(4-((5-(3-((1-(1H-tetrazol-1-yl)propan-2-yl)oxy)-4-chlorophenyl)pyrimidin-2-yl)amino)-3-(trifluoromethyl)-1H-pyrazol-1-yl)ethyl)benzamide] was tested. Which IC50 did it give?
A: ≥ 0.1 µM

Q: With C[C@@H](Cn1cnnn1)Oc1cc(-c2cnc(Nc3cn(CCN4CCCC4)nc3C(F)(F)F)nc2)ccc1Cl [Example 631, (S)-5-(3-((1-(1H-tetrazol-1-yl)propan-2-yl)oxy)-4-chlorophenyl)-N-(1-(2-(pyrrolidin-1-yl)ethyl)-3-(trifluoromethyl)-1H-pyrazol-4-yl)pyrimidin-2-amine] as the compound, how does the IC50 read?
A: < 0.01 µM

Q: For CCc1nn(C2CCN(C3CCOCC3)CC2)cc1Nc1ncc(-c2ccc(Cl)c(O[C@@H](C)Cn3cnnn3)c2)cn1 [Example 632, (S)-5-(3-((1-(1H-tetrazol-1-yl)propan-2-yl)oxy)-4-chlorophenyl)-N-(3-ethyl-1-(1-(tetrahydro-2H-pyran-4-yl)piperidin-4-yl)-1H-pyrazol-4-yl)pyrimidin-2-amine], which IC50 is on record?
A: < 0.01 µM

Q: C[C@@H](Cn1cnnn1)Oc1cc(-c2cnc(Nc3cn(CCN4CCOCC4)nc3C(F)(F)F)nc2)ccc1Cl [Example 633, (S)-5-(3-((1-(1H-tetrazol-1-yl)propan-2-yl)oxy)-4-chlorophenyl)-N-(1-(2-morpholinoethyl)-3-(trifluoromethyl)-1H-pyrazol-4-yl)pyrimidin-2-amine] was tested. Which IC50 did it give?
A: 0.01 to 0.1 µM

Q: COc1cc(N2C[C@@H]3C[C@H]2CN3)ccc1Nc1ncc(-c2ccc(Cl)c(O[C@@H](C)Cn3cnnn3)c2)cn1 [Example 634, 5-(3-(((S)-1-(1H-tetrazol-1-yl)propan-2-yl)oxy)-4-chlorophenyl)-N-(4-((1S,45)-2,5-diazabicyclo[2.2.1]heptan-2-yl)-2-methoxyphenyl)pyrimidin-2-amine] was tested. Which IC50 did it give?
A: 0.01 to 0.1 µM

Q: C[C@@H](Cn1cnnn1)Oc1cc(-c2cnc(Nc3cn(CC4CCCN(C)C4)nc3C(F)(F)F)nc2)ccc1Cl (stereo partly drawn) [Example 635, 5-(3-(((S)-1-(1H-tetrazol-1-yl)propan-2-yl)oxy)-4-chlorophenyl)-N-(1-((1-methylpiperidin-3-yl)methyl)-3-(trifluoromethyl)-1H-pyrazol-4-yl)pyrimidin-2-amine] was tested. Which IC50 did it give?
A: 0.01 to 0.1 µM

Q: With COc1nc(N2CCN(C3CCC(F)(F)CC3)CC2)ccc1Nc1ncc(-c2ccc(Cl)c(O[C@@H](C)Cn3cnnn3)c2)cn1 [Example 636, (S)-5-(3-((1-(1H-tetrazol-1-yl)propan-2-yl)oxy)-4-chlorophenyl)-N-(6-(4-(4,4-difluorocyclohexyl)piperazin-1-yl)-2-methoxypyridin-3-yl)pyrimidin-2-amine] as the compound, how does the IC50 read?
A: 0.01 to 0.1 µM

Q: For COc1nc(N2CCN(CC(F)(F)F)CC2)ccc1Nc1ncc(-c2ccc(Cl)c(O[C@@H](C)Cn3cnnn3)c2)cn1 [Example 637, (S)-5-(3-((1-(1H-tetrazol-1-yl)propan-2-yl)oxy)-4-chlorophenyl)-N-(2-methoxy-6-(4-(2,2,2-trifluoroethyl)piperazin-1-yl)pyridin-3-yl)pyrimidin-2-amine], which IC50 is on record?
A: ≥ 0.1 µM

Q: COc1nc(N2CCN(C(=O)C(F)(F)F)CC2)ccc1Nc1ncc(-c2ccc(Cl)c(O[C@@H](C)Cn3cnnn3)c2)cn1 [Example 638, (S)-1-(4-(5-((5-(3-((1-(1H-tetrazol-1-yl)propan-2-yl)oxy)-4-chlorophenyl)pyrimidin-2-yl)amino)-6-methoxypyridin-2-yl)piperazin-1-yl)-2,2,2-trifluoroethan-1-one] was tested. Which IC50 did it give?
A: ≥ 0.1 µM

Q: How did the IC50 turn out when COc1nc(N2CCN(CC3COC3)CC2)ccc1Nc1ncc(-c2ccc(Cl)c(O[C@@H](C)Cn3cnnn3)c2)cn1 [Example 639, (S)-5-(3-((1-(1H-tetrazol-1-yl)propan-2-yl)oxy)-4-chlorophenyl)-N-(2-methoxy-6-(4-(oxetan-3-ylmethyl)piperazin-1-yl)pyridin-3-yl)pyrimidin-2-amine] was run?
A: 0.01 to 0.1 µM

Q: With COc1nc(N2CCN(C3CCOC3)CC2)ccc1Nc1ncc(-c2ccc(Cl)c(O[C@@H](C)Cn3cnnn3)c2)cn1 (stereo partly drawn) [Example 640, 5-(3-(((S)-1-(1H-tetrazol-1-yl)propan-2-yl)oxy)-4-chlorophenyl)-N-(2-methoxy-6-(4-(tetrahydrofuran-3-yl)piperazin-1-yl)pyridin-3-yl)pyrimidin-2-amine] as the compound, how does the IC50 read?
A: 0.01 to 0.1 µM

Q: Which IC50 does the source give for C[C@@H](Cn1cnnn1)Oc1cc(-c2cnc(Nc3cn(CC4CN(Cc5ccccc5)CCO4)nc3C(F)(F)F)nc2)ccc1Cl (stereo partly drawn) [Example 641, 5-(3-(((S)-1-(1H-tetrazol-1-yl)propan-2-yl)oxy)-4-chlorophenyl)-N-(1-((4-benzylmorpholin-2-yl)methyl)-3-(trifluoromethyl)-1H-pyrazol-4-yl)pyrimidin-2-amine] here?
A: ≥ 0.1 µM

Q: Which IC50 does the source give for CCn1cc(Nc2ncc(-c3ccc(Cl)c(O[C@@H](C)Cn4cnnn4)c3)cn2)c(C2CC2)n1 [Example 642, (S)-5-(3-((1-(1H-tetrazol-1-yl)propan-2-yl)oxy)-4-chlorophenyl)-N-(3-cyclopropyl-1-ethyl-1H-pyrazol-4-yl)pyrimidin-2-amine] here?
A: 0.01 to 0.1 µM

Q: How did the IC50 turn out when CCn1cc(Nc2ncc(-c3ccc(Cl)c(O[C@@H](C)Cn4cnnn4)c3)cn2)c(-c2ccccc2)n1 [Example 643, (S)-5-(3-((1-(1H-tetrazol-1-yl)propan-2-yl)oxy)-4-chlorophenyl)-N-(1-ethyl-3-phenyl-1H-pyrazol-4-yl)pyrimidin-2-amine] was run?
A: 0.01 to 0.1 µM

Q: C[C@@H](Cn1cnnn1)Oc1cc(-c2cnc(Nc3cn(C4CCOC4)nc3C(F)(F)F)nc2)ccc1Cl (stereo partly drawn) [Example 644, 5-(3-(((S)-1-(1H-tetrazol-1-yl)propan-2-yl)oxy)-4-chlorophenyl)-N-(1-(tetrahydrofuran-3-yl)-3-(trifluoromethyl)-1H-pyrazol-4-yl)pyrimidin-2-amine] was tested. Which IC50 did it give?
A: 0.01 to 0.1 µM

Q: Which IC50 does the source give for C[C@@H](Cn1cnnn1)Oc1cc(-c2cnc(Nc3cn(C4CCOCC4)nc3C(F)(F)F)nc2)ccc1Cl [Example 645, (S)-5-(3-((1-(1H-tetrazol-1-yl)propan-2-yl)oxy)-4-chlorophenyl)-N-(1-(tetrahydro-2H-pyran-4-yl)-3-(trifluoromethyl)-1H-pyrazol-4-yl)pyrimidin-2-amine] here?
A: 0.01 to 0.1 µM

Q: COc1nn(C2CCN(C(=O)OC(C)(C)C)CC2)cc1Nc1ncc(-c2ccc(Cl)c(O[C@@H](C)Cn3cnnn3)c2)cn1 [Example 646, tert-butyl (S)-4-(4-((5-(3-((1-(1H-tetrazol-1-yl)propan-2-yl)oxy)-4-chlorophenyl)pyrimidin-2-yl)amino)-3-methoxy-1H-pyrazol-1-yl)piperidine-1-carboxylate] was tested. Which IC50 did it give?
A: 0.01 to 0.1 µM

Q: With COc1cc(N2CCN(C3CCOCC3)CC2)cnc1Nc1ncc(-c2ccc(Cl)c(O[C@@H](C)Cn3cnnn3)c2)cn1 [Example 647, (S)-5-(3-((1-(1H-tetrazol-1-yl)propan-2-yl)oxy)-4-chlorophenyl)-N-(3-methoxy-5-(4-(tetrahydro-2H-pyran-4-yl)piperazin-1-yl)pyridin-2-yl)pyrimidin-2-amine] as the compound, how does the IC50 read?
A: 0.01 to 0.1 µM

Q: For COc1cc(N2CCN(CC3COC3)CC2)cnc1Nc1ncc(-c2ccc(Cl)c(O[C@@H](C)Cn3cnnn3)c2)cn1 [Example 648, (S)-5-(3-((1-(1H-tetrazol-1-yl)propan-2-yl)oxy)-4-chlorophenyl)-N-(3-methoxy-5-(4-(oxetan-3-ylmethyl)piperazin-1-yl)pyridin-2-yl)pyrimidin-2-amine], which IC50 is on record?
A: 0.01 to 0.1 µM

Q: Which IC50 does the source give for COc1cc(N2CCNC[C@@H]2C)ccc1Nc1ncc(-c2ccc(Cl)c(O[C@@H](C)Cn3cnnn3)c2)cn1 [Example 649, 5-(3-(((S)-1-(1H-tetrazol-1-yl)propan-2-yl)oxy)-4-chlorophenyl)-N-(2-methoxy-4-((S)-2-methylpiperazin-1-yl)phenyl)pyrimidin-2-amine] here?
A: < 0.01 µM

Q: COc1cc(N2CCN(C3CCOCC3)CC2)ncc1Nc1ncc(-c2ccc(Cl)c(O[C@@H](C)Cn3cnnn3)c2)cn1 [Example 650, (S)-5-(3-((1-(1H-tetrazol-1-yl)propan-2-yl)oxy)-4-chlorophenyl)-N-(4-methoxy-6-(4-(tetrahydro-2H-pyran-4-yl)piperazin-1-yl)pyridin-3-yl)pyrimidin-2-amine] was tested. Which IC50 did it give?
A: < 0.01 µM

Q: With COc1cc(N2CCN(C3CCOC3)CC2)ncc1Nc1ncc(-c2ccc(Cl)c(O[C@@H](C)Cn3cnnn3)c2)cn1 (stereo partly drawn) [Example 651, 5-(3-(((S)-1-(1H-tetrazol-1-yl)propan-2-yl)oxy)-4-chlorophenyl)-N-(4-methoxy-6-(4-(tetrahydrofuran-3-yl)piperazin-1-yl)pyridin-3-yl)pyrimidin-2-amine] as the compound, how does the IC50 read?
A: 0.01 to 0.1 µM

Q: With COc1cc(N2CCN(CC3COC3)CC2)ncc1Nc1ncc(-c2ccc(Cl)c(O[C@@H](C)Cn3cnnn3)c2)cn1 [Example 652, (S)-5-(3-((1-(1H-tetrazol-1-yl)propan-2-yl)oxy)-4-chlorophenyl)-N-(4-methoxy-6-(4-(oxetan-3-ylmethyl)piperazin-1-yl)pyridin-3-yl)pyrimidin-2-amine] as the compound, how does the IC50 read?
A: 0.01 to 0.1 µM

From patent US10543212B2, “Substituted amines for treating cardiac diseases” (Cardurion Pharmaceuticals, LLC, priority 2017, dated 2020)
